US5932417A, “Method of screening compounds for controlling capacitative calcium ion entry into mammalian cells” (priority 1996, dated 1999)
Entries after “also recorded” stand apart in the source; their conditions may differ.

Assays:
Htrp3 [1] = biological target: T1, Htrp3 (Homo sapiens, UniProt Q13507); test: Carbachol-stimulated CCE upon Ca2+ readdition in HEK-293 cells stably expressing Htrp3 (HEKt3-9); format: cell-based; design: expressed in transfected cells; conditions: 25 μM SKF 96365, HEKt3-9 cells, Ca2+ readdition (FIG. 2)
T1 sequence (Q13507 1-848 isoform Q13507-3): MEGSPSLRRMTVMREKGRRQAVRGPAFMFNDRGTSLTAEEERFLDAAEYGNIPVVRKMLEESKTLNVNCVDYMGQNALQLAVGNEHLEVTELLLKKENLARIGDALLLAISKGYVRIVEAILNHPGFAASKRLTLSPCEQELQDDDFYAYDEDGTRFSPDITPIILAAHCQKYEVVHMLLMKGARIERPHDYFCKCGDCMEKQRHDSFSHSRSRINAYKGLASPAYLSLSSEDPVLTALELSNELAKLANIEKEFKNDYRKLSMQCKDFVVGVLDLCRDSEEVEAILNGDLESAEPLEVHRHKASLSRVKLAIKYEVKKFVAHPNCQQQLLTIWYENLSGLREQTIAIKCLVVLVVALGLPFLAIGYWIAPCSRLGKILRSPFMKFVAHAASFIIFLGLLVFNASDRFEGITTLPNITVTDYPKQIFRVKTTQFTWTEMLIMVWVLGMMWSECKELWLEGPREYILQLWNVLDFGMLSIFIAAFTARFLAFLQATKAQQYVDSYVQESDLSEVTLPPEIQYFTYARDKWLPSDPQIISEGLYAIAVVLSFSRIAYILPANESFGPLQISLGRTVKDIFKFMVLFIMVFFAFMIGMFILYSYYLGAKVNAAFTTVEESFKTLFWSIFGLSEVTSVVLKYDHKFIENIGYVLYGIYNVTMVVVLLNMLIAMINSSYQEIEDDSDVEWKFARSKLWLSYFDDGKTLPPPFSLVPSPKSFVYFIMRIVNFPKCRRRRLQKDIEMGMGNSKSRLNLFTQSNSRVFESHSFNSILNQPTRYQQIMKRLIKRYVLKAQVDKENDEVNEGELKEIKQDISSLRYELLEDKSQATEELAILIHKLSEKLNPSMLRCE
Source text: (§1) Trp proteins can be expressed in cells by standard recombinant means such as described in Innamoratti et al. (57), Gudermann et al. (58), Zhu et al. (59) and Ca^2+ influx monitored in single cells as described in Zhu et al. (30) or in a population of cells as described in Liao et al. (32). By doing this in the absence and presence of test compounds of which the effect on trp-mediated CCE can then be determined. An example is shown below (FIGS. 1 and 2) where human embryonic kidney cells (HEK-293 cells) expressing Htrp3 in stable form (HEKt3-9) are stimulated with carbachol and CCE is measured upon readdition of Ca^2+ to the extracellular medium. […] Not only agents that block calcium entry due to trp expression but also agents that stimulate calcium entry due to trp can be monitored in this way.
(§2) In the above examples, cell were suspended in extracellular solution at a concentration of 20×10^6 cells/ml, loaded with Fura2AM (5 μM, 30 min), washed with solution nominally free of calcium, twice, and suspended at 2×10^6 cells/ml. Intracellular Ca^2+ concentrations were then monitored as described in Liao et al (32). Times and concentrations of additions are depicted by the bars in the Figures. Control cells were HEK 293 cells expressing an unrelated protein. For further details see references 32 and 30. […]

[2] = tested on: CCE endogenous to the HEK 293 cell; test: Carbachol-stimulated endogenous CCE in control HEK 293 cells; format: cell-based, human; conditions: 25 μM SKF 96365
Source text: as §1, §2

Htrp3 [3] = biological target: T1, Htrp3; test: Maitotoxin-stimulated Ca2+ influx into HEK 293 cells expressing Htrp3 versus control cells; format: cell-based; design: expressed in transfected cells; conditions: HEK 293 cells (FIG. 3)
Source text: as §1, §2

[4] = tested on: CCE endogenous to COS cells; format: cell-based
Experimental: Intracellular Ca^2+ transients were measured in individual cells by fluorescence videomicroscopy using the Attofluor Digital Imaging and Photometry attachment of a Carl Zeiss Axiovert inverted microscope. Cells (COS-M6 or L) were grown on circular coverslips, rinsed and incubated with 5 μM Fura2/AM (Molecular Probes) in Hepes buffered saline (HPSS: 120 mM NaCl, 5.3 mM KCl, 0.8 mM MgSO4, 1.8 mM CaCl2, 11.1 mM glucose, 20 mM Hepes-Na, pH 7.4) at 37° C. for 30 min and then washed with HPSS twice at room temperature. The coverslips with the cells were then clamped into a circular open-bottom chamber and mounted onto the stage of the microscope. [Ca^2+ ]i in individual cells was monitored at room temperature exciting Fura2 alternatingly at 334 and 380 nm and recording emitted fluorescence at 520 nm. […] Data from 15 to 30 individual cells were thus collected per experiment and experiments were repeated until data from sufficient cells were collected to generate an ensemble average that was calculated after transfer into Microsoft Excel 5.0. […]
For assessment of the rate at which [Ca^2+ ]i falls after an initial stimulation with agonist, t=0 is the time of agonist addition; for assessment of rate of influx of Ca^2+ into cells in which Ca^2+ stores had been depleted by agonist, t=0 is the time of Ca^2+ readdition. t1/2 /values were obtained by fitting the function A=A°exp(-t·ln2/t1/2)+B to the data points shown. […]

Htrp3 [5] = biological target: T1, Htrp3; test: Thapsigargin (store depletion)-stimulated Ca2+ entry in Htrp3-transfected COS cells; format: cell-based; design: The full length cDNAs encoding the M5 muscarinic receptor (32), Htrp1 (29), Htrp3 and murine luteinizing hormone receptor; expressed in transfected cells; host or cells: COS-M6; conditions: 250 μM La3+; 500 nM TG, 1.8 mM Ca2+ added
Experimental: (§3) Intracellular Ca^2+ transients were measured in individual cells by fluorescence videomicroscopy using the Attofluor Digital Imaging and Photometry attachment of a Carl Zeiss Axiovert inverted microscope. Cells (COS-M6 or L) were grown on circular coverslips, rinsed and incubated with 5 μM Fura2/AM (Molecular Probes) in Hepes buffered saline (HPSS: 120 mM NaCl, 5.3 mM KCl, 0.8 mM MgSO4, 1.8 mM CaCl2, 11.1 mM glucose, 20 mM Hepes-Na, pH 7.4) at 37° C. for 30 min and then washed with HPSS twice at room temperature. The coverslips with the cells were then clamped into a circular open-bottom chamber and mounted onto the stage of the microscope. [Ca^2+ ]i in individual cells was monitored at room temperature exciting Fura2 alternatingly at 334 and 380 nm and recording emitted fluorescence at 520 nm. All reagents were diluted to their final concentrations in HPSS and applied to the cells by surface perfusion. The duration of exposure to each reagent mixture is indicated by the horizontal lines above the graphs depicting the changes in [Ca^2+ ]i as a function of time. […] Data from 15 to 30 individual cells were thus collected per experiment and experiments were repeated until data from sufficient cells were collected to generate an ensemble average that was calculated after transfer into Microsoft Excel 5.0. […]

[6] = tested on: endogenous TG-stimulated Ca2+ entry of COS cells; test: Thapsigargin (store depletion)-stimulated Ca2+ entry in control COS cells; format: cell-based; conditions: 250 μM La3+, 500 nM TG, 1.8 mM Ca2+ added
Experimental: as §3

Htrp3 [7] = biological target: T1, Htrp3; format: cell-based; design: The full length cDNAs encoding the M5 muscarinic receptor (32), Htrp1 (29), Htrp3 and murine luteinizing hormone receptor; expressed in transfected cells; host or cells: COS-M6
Experimental: Intracellular Ca^2+ transients were measured in individual cells by fluorescence videomicroscopy using the Attofluor Digital Imaging and Photometry attachment of a Carl Zeiss Axiovert inverted microscope. Cells (COS-M6 or L) were grown on circular coverslips, rinsed and incubated with 5 μM Fura2/AM (Molecular Probes) in Hepes buffered saline (HPSS: 120 mM NaCl, 5.3 mM KCl, 0.8 mM MgSO4, 1.8 mM CaCl2, 11.1 mM glucose, 20 mM Hepes-Na, pH 7.4) at 37° C. for 30 min and then washed with HPSS twice at room temperature. The coverslips with the cells were then clamped into a circular open-bottom chamber and mounted onto the stage of the microscope. [Ca^2+ ]i in individual cells was monitored at room temperature exciting Fura2 alternatingly at 334 and 380 nm and recording emitted fluorescence at 520 nm. All reagents were diluted to their final concentrations in HPSS and applied to the cells by surface perfusion. […] The system allows data acquisition from up to 99 user-defined variably-sized regions of interest per field of view. Data from 15 to 30 individual cells were thus collected per experiment and experiments were repeated until data from sufficient cells were collected to generate an ensemble average that was calculated after transfer into Microsoft Excel 5.0. […]
For assessment of the rate at which [Ca^2+ ]i falls after an initial stimulation with agonist, t=0 is the time of agonist addition; for assessment of rate of influx of Ca^2+ into cells in which Ca^2+ stores had been depleted by agonist, t=0 is the time of Ca^2+ readdition. t1/2 /values were obtained by fitting the function A=A°exp(-t·ln2/t1/2)+B to the data points shown.
Cells that had been transfected with expression vectors carrying the M5 receptor and, as appropriate, either the newly cloned Htrp3 cDNA or the previously cloned Htrp1 cDNA (29), were grown on coverslips, loaded with the florescent Ca^2+ indicator dye Fura2 and tested for a response to CCh 40-48 hours after transfection. […] Changes in [Ca^2+ ]i as a function of time were recorded from individual cells, averaged and fitted by a first order decay function plus an offset.

M5 muscarinic receptor [8] = test: Carbachol-induced capacitative Ca2+ influx in Ltk- cell lines expressing the M5 receptor (Fura2); format: cell-based; conditions: control Ltk- cell lines with M5 receptor only; average±SD, 20 cells each of 5 clones
Experimental: Mouse fibroblast Ltk^- cells (3×10^6 cells/100 mm dish) were transfected by the calcium phosphate/glycerol shock method with 5 μg each of the plasmids with the antisense cDNAs and 0.5 μg of the pcDNA3 carrying the M5 receptor. The control cells received only the M5 muscarinic receptor cDNA in pcDNA3. One day after transfection, the cells were trypsinized and diluted with Minimum Essential Medium--α medium containing 10% heat-inactivated fetal bovine serum, 50 units/ml penicillin, 50 μg/ml streptomycin, and 400 μg/ml G418 (GIBCO). Serial 1:4 dilutions of the cells were transferred into 96-well plates and G418 resistant clones were allowed to develop for two weeks in the G41 8-containing medium. Single colonies were then expanded and the cells used for Fura2 fluorescence measurement of muscarinic receptor induced [Ca^2+ ]i transients. […]
Intracellular Ca^2+ transients were measured in individual cells by fluorescence videomicroscopy using the Attofluor Digital Imaging and Photometry attachment of a Carl Zeiss Axiovert inverted microscope. […] [Ca^2+ ]i in individual cells was monitored at room temperature exciting Fura2 alternatingly at 334 and 380 nm and recording emitted fluorescence at 520 nm. […]

M5 muscarinic receptor [9] = test: Carbachol-induced [Ca2+]i plateau in COS-M6 cells transfected with M5 receptor; format: cell-based; conditions: extracellular Ca2+ present
Experimental: COS-M6 cells were transfected by the DEAE-dextran/chloroquine shock method (14) as described (30) with changes. Sixteen hours prior to transfection, COS-M6 cells that had been kept subconfluent were plated at a density of 2×10^5 cells/well onto 25 mm glass coverslips placed at the bottom of the wells of 6-well plates. Cells in the individual wells were then transfected with 160 μl of transfection mixture (30) containing 0.1 μg pcDNA3 with the M5 receptor cDNA, a three fold molar excess of pcDNA3 vector carrying either the Htrp3, Htrp1 or mLHR cDNA to bring the final concentration of DNA to 4 μg/ml. Cell were used 40 to 48 hours after transfection.
Intracellular Ca^2+ transients were measured in individual cells by fluorescence videomicroscopy using the Attofluor Digital Imaging and Photometry attachment of a Carl Zeiss Axiovert inverted microscope. […] [Ca^2+ ]i in individual cells was monitored at room temperature exciting Fura2 alternatingly at 334 and 380 nm and recording emitted fluorescence at 520 nm. […] Data from 15 to 30 individual cells were thus collected per experiment and experiments were repeated until data from sufficient cells were collected to generate an ensemble average that was calculated after transfer into Microsoft Excel 5.0. […]

In the case of `COc1ccc(CCCOC(Cn2ccnc2)c2ccc(OC)cc2)cc1` (centres unmarked) [SKF 96365], the “Block of CCE due to Htrp3 (extra-CCE)” value (Htrp3 [1]) is reported as “blocks selectively; also recorded: blocked” and the “Sensitivity of CCE endogenous to the HEK 293 cell (control)” value [2] is reported as “much less sensitive”.
In the case of maitotoxin, the “Maitotoxin-stimulated Ca2+ influx, Htrp3-expressing cells versus control cells” value (Htrp3 [3]) is reported as “several fold larger”.
`[La+3]` [La^3+, lanthanum] was tested, and the “Block of endogenous Ca2+ influx” value ([4]; 250 μM La3+, COS cells, agonist-stimulated) was 80-90%, the “Inhibition of CCE endogenous to COS cells” value ([4]; 1 mM La3+, CCh-stimulated, Ca2+ readdition) was “fully inhibited” and the “Effect on TG-stimulated Ca2+ entry into Htrp3 transfected cells” value (Htrp3 [5]) was “significant residual”. For the same molecule, the “Block of TG-stimulated Ca2+ entry” value [6] was > 80%, the “Block of the difference due to Htrp3 influx” value (Htrp3 [7]; 250 μM La3+, Htrp3-transfected COS cells) was 30-40% and the “Inhibition of Htrp3-stimulated Ca2+ influx” value (Htrp3 [7]; 1 mM La3+, COS-M6 cells, CCh-stimulated, Ca2+ readdition) was “fully inhibited”.
In the case of `C[N+](C)(C)CCOC(N)=O` [CCh, carbachol], the “Increase of [Ca2+]i through the capacitative influx path (at Ca2+ addition vs 30 sec later)” value (M5 muscarinic receptor [8]) is reported as 96 ± 5 nM.
`CN1[C@@H]2CC[C@H]1C[C@@H](OC(=O)C(CO)c1ccccc1)C2` (some centres unmarked) [atropine] was tested, and the “Effect on carbachol-maintained [Ca2+]i plateau” value (M5 muscarinic receptor [9]) was “blocked”.
In the case of `[Ni+2]` [Ni^2+, nickel], the “Block of endogenous CCh-stimulated CCE” value ([4]; 2 mM Ni2+, COS cells) is reported as > 90%, the “Inhibition of CCh-stimulated influx due to Htrp3” value (Htrp3 [7]; 2 mM Ni2+, Htrp3-transfected COS cells) is reported as 20% and the “Block of Ca2+ influx in Htrp3 cells” value (Htrp3 [7]; 10 mM Ni2+, Htrp3-transfected COS cells) is reported as 85%.
